“And” between values parts separate entries of the source, which are not always exact repeats. Equal entries are not always repeated.
Key:
[1] = EtOH printed for cyproconazole only; cited from earlier work
[2] = Simulated rainfall / sequential aqueous leaching of dried films; type: physicochemical; set-up: depletion of supplied active by aqueous extraction / release rate, % of supplied active: concentration or dose not given beside the values; conditions: for release rate of active: FIG. 10; for release rate, % of supplied active: FIG. 8; for recoverable active released to water: FIG. 9
Method: (§1) Two experimental protocols were used to evaluate aqueous release and the extent of active retention. The first protocol was a rapid solvent extraction screen that involved dipping the coated specimens sequentially into vials containing 35 ml water for 1, 1, 5, and 10 minutes, then 50% MeOH for 10 minutes, and 100% MeOH for 24 hours. This protocol provided a rapid comparison of water soluble and entrained, but releasable, active fractions. The second protocol was to assess release rates based on simulated precipitation/rainfall conditions. This protocol involved maintaining test samples in successive 35 ml volumes of water for 24-hour periods for up to […], providing a cumulative daily release rate from dried films. This water extraction period was followed by a single extraction in 100% MeOH for 24 and 48 hrs to determine residual/entrained or solvent removable active. The aqueous leach procedure is considered extreme in simulating intermittent daily rainfalls of varying intensity, but does provide the rates of release for comparative purposes.
The solvent extraction method used above represents a rapid screen for the comparative entrainment behavior of actives and surfactants in the formulated latex system. To address the problem of foliar retention and longevity of actives using a single field application is more a function of rainfall frequency and intensity. To better understand this process under laboratory conditions, we employed a continuous/sequential aqueous (pH 6.0-6.8) leaching process, with periodic sampling and replacement of the solution over periods up to 288 hrs. This is a rather harsh leaching process, but is more representative than the water/MeOH solvent extraction procedure used for screening.
In the simulated rainfall study, we compared the aqueous extraction patterns for cyproconazole at 0.06% with 0.24% EtOH (1×) added to latex (with no surfactant), cyproconazole with […] and 0.05% PP912T added to latex, and cyproconazole with 1% EtOH (4×) and 0.05% PP912T added to latex. This combination was designed to determine formulation variables including surfactant and increased EtOH.
Aqueous extraction of formulations containing chlorothalonil and spiroxamine with latex without surfactant and with PP912T, AU-398 and AU-391A were compared to evaluate long term extraction profiles and residual active after 144 hrs of extraction, sampled at 24 hr intervals.

[3] = Rapid solvent extraction screen of coated specimens (water, 50% MeOH, 100% MeOH); type: physicochemical
Method: as §1
The influence of formulation factors on cyproconazole release and entrainment from aqueous solutions containing 0.2% EtOH without latex (FIG. 1A) was compared to the subsequent EtOH studies with latex. […] This would be expected to represent the relative solubility and release of active, and likely dependent on water solubility of the active.
To determine the influence of latex on cyproconazole release, cyproconazole was first dissolved in ethanol and added to 2% latex solutions to assess the effects on cyproconazole binding with latex using solvent extractions (FIG. 1A).
The first step was to determine the solvent extractability of the non-latex formulations. This was based on readily soluble (water, 17 minutes), easily soluble (50% MeOH, 10 minutes), and relatively non-water soluble (100% MeOH, 24 hr) fractions of the formulations (FIG. 3).
A total of nine commercial surfactants (Table 1) were compared for relative entrainment of cyproconazole in latex, based on the percent of active contained in the 100% MeOH fraction (FIG. 5).
The same solvent extraction protocol was used to evaluate 2 other fungicides (chlorothalonil and spiroxamine) with differing chemistries (water solubility and solvent solubility). These were evaluated using the same solvent extraction protocol. The three surfactants that worked best with cyproconazole were used for these actives.

[4] = aqueous 0.2% EtOH, without latex, FIG. 1A

## N#Cc1c(Cl)c(Cl)c(Cl)c(C#N)c1Cl [chlorothalonil]
[1]
  solvent solubility: 10000 µg/mL
[2]; latex alone, at 6 days
  release rate of active: 63%
[2]; latex with surfactants, 6 days
  release rate of active: 80-88%
[2]; without surfactant, after 6 days of extraction, FIG. 11
  active remained after extraction: 16%
[3]; latex, with PP912T and AU-398, FIG. 6
  100% MeOH retention compared to no surfactant: increase

## CC(C1CC1)C(O)(Cn1cncn1)c1ccc(Cl)cc1 (centres unmarked) [cyproconazole]
[2]; latex with AU-391A, at 6 days
  release rate, % of supplied active: 60%
[2]; latex with AU-398, at 6 days
  release rate, % of supplied active: 50%
[2]; latex with PP912T, at 6 days
  release rate, % of supplied active: 73%
[2]; latex with surfactant PP912T, at 288 days, FIG. 7
  depletion of supplied active by aqueous extraction: 90%
[2]; latex/EtOH, FIG. 1B
  time to attain 90% loss to water: 12 days
[2]; without latex, FIG. 1B
  time at which aqueous loss of supplied active was 90%: 2.5 days
[3]; [4]
  50% MeOH fraction of active: 68%
  100% MeOH fraction of active: 13.5% and 13%
  water extractable fraction of active: 18.5%
[3]; dissolved in ethanol, added to 2% latex solution, FIG. 1A
  100% MeOH fraction of active: 32%

## CCCN(CC)CC1COC2(CCC(C(C)(C)C)CC2)O1 (centres unmarked) [spiroxamine]
[2]; latex alone, 144 hr extraction
  recoverable active released to water: 85%
[2]; latex plus AU-391A, 144 hr extraction
  recoverable active released to water: 85%
[2]; latex plus AU-398, 144 hr extraction
  recoverable active released to water: 50%
[2]; latex plus PP912T, 144 hr extraction
  recoverable active released to water: 50%
[2]; latex with AU-391A
  effect on release compared to latex alone: no effect
[2]; latex with PP912T and AU-398
  release rate compared to latex alone: substantial reduction
[2]; with latex, without surfactant, 6 days extraction, FIG. 13
  active released: 94%
[3]; latex, with PP912T, AU-398 and AU-391A, FIG. 6
  release to water compared to the no-surfactant control: increased release

Source: patent US20150366190A1, “Sustained Release Methods to Defeat Plant Pests” (BioGuard Technologies, Inc., priority 2014, published 2015)
